The molecules below were run on TNF-α (assay: In vitro induction of TNF-α in rat blood by LPS (ELISA)). Conditions: test compound final concentration 100 μM, 5 hours, read-out: Rate of TNFα inhibition.
Assay type: cell-based
Method: Experiment Objective: Determining the impact of the compounds on induction of TNF-α in rat blood by LPS in vitro, and evaluating the effect of the compounds on inhibiting induction of TNF-α in rat blood by LPS.
Sprague Dawley rats (male, 210-260 g, 8-10 weeks old, Shanghai SLAC)
Rat TNF-alpha Quantikine ELISA Kit (R&D, # SRTA00)
The test compound solutions were prepared at a concentration of 1 mM. 40 μl of each of the solutions was added into a 48-well cell culture plate (at the final concentration of 100 μM). After the rat was anesthetized with isoflurane, the blood was collected from the heart (heparin for anticoagulation). The blood was added into the 48-well plate containing the test compound, in the amount of 320 μL per well. The 48-well plate was placed into a cell incubator, and then taken out after 30 minutes of incubation. Then, 40 μL of LPS solution (100 μg/ml) was added and mixed. The 48-well plate was placed into the incubator for further incubation. After 5 hours, the 48-well plate was taken out and the blood sample was transferred to a 1.5 mL centrifuge tube, followed by centrifugation in a centrifuge (4,500 rpm, 4° C., 5 minutes). The supernatant was separated and the plasma was obtained. […] In the next day, the TNF-α level of the plasma samples was determined by using the R&D ELISA kit in accordance with the instructions.

Q: Cn1cnc2c1c(=O)n(CC1(C)COC1)c(=O)n2C [Example 3, 3,7-Dimethyl-1-((3-methyloxetan-3-yl)methyl)-1H-purin-2,6(3H, 7H)-dione] was tested. Which inhibition at 100 µM did it give?
A: 60 to 80%

Q: With Cn1cnc2c1c(=O)n(CCN1CCOCC1)c(=O)n2C [Example 17, 3,7-Dimethyl-1-(2-morpholinoethyl)-purin-2,6-dione] as the molecule, how does the inhibition at 100 µM read?
A: < 60%

What follows are molecules tested against T1, Recombinant full-length human PDE2A protein (Homo sapiens, UniProt O00408) (assay: In vitro PDE2 phosphodiesterase inhibitory activity (fluorescence polarization, Transcreener AMP2/GMP2)). Conditions: not given.
T1 construct: Recombinant full-length human PDE2A protein; GST (N); host or cells: insect Sf9 cells (baculovirus)
T1 sequence (O00408 whole entry): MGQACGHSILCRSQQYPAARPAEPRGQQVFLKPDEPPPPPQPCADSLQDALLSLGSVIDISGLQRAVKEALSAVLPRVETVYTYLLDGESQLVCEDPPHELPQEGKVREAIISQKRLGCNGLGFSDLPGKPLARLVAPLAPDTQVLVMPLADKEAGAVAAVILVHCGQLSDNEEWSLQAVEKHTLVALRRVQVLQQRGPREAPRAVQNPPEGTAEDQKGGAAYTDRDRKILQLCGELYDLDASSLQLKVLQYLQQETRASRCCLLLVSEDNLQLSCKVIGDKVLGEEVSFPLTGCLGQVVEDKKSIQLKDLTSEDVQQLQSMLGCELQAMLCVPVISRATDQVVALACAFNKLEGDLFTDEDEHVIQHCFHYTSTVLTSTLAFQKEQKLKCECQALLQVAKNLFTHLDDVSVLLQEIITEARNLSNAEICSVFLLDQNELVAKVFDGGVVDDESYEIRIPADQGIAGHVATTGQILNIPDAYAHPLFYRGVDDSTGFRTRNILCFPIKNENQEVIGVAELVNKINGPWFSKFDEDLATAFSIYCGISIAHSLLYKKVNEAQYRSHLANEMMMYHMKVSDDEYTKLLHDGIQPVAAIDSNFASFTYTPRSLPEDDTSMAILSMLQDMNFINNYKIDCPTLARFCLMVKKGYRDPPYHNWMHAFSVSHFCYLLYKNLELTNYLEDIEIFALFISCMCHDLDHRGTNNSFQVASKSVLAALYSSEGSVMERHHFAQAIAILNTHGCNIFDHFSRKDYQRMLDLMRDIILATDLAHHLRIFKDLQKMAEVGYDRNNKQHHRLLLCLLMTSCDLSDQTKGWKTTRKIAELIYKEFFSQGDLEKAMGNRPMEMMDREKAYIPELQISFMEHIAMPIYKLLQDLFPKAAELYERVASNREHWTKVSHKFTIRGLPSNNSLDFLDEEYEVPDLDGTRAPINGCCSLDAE
Assay type: biochemical
Method: Experiment Objective: Determining the concentration of AMP/GMP produced in the reaction system by way of detecting the AlexaFluor 633 fluorescent dye substituted on AMP/GMP antibody by fluorescence polarization assay, and thereby to calculate the IC50 value of PDE2 phosphodiesterase inhibition by the test compound. Experimental Materials: Detecting buffer solution: 10 mM Tris-HCl, pH 7.5, 5 mM MgCl2, 0.01% Brij 35, 1 mM DTT, and 1% DMSO. Enzyme: Recombinant full-length human PDE2A protein with an N-terminal GST-tag expressed in insect Sf9 cells by baculovirus Substrate: 1 μM cGMP Detection System: Transcreener® AMP^2/GMP^2 antibody, AMP2/GMP2 AlexaFluor 633 fluorescent dye Experimental Operation:
The enzyme solution was prepared by using the freshly prepared buffer solution, and then was added into the reaction wells. The DMSO solution of the test compound was added via Echo550, a nanoliter-scale contactless acoustic liquid transferring system, and then pre-incubated at room temperature for 10 minutes. The substrate (1 μLM cGMP) was added to initiate the reaction at room temperature for one hour. The detection system (Transcreener® AMP^2/GMP^2 antibody, AMP2/GMP2 AlexaFluor 633 fluorescent dye) was then added, and the reaction was conducted at room temperature for 90 minutes. Fluorescence polarization was then detected by using Ex/Em 620/688.
The intensity of fluorescence polarization was converted to nM concentration by the AMP/GMP standard curve, and then calculate the relative enzyme activity inhibition relative to the DMSO blank. The IC50 values and curves were calculated by using the Prism software package (GraphPad Software, San Diego Calif., USA)

Q: With Cn1cnc2c1c(=O)n(CC1(C)COC1)c(=O)n2C [Example 3, 3,7-Dimethyl-1-((3-methyloxetan-3-yl)methyl)-1H-purin-2,6(3H, 7H)-dione] as the molecule, how does the IC50 read?
A: 10 to 50 µM

Same assay, conditions: human PDE2A, substrate 1 μM cGMP, fluorescence polarization; read-out: PDE2 phosphodiesterase inhibitory activity

Q: How did the IC50 turn out when Cn1c(=O)n(CC2(C)COC2)c(=O)c2c1cnn2CC1CC1 [Example 33, 1-(Cyclopropylmethyl)-4-methyl-6-((3-methyloxetan-3-yl)methyl)-pyrazolo[4,3-d]pyrimidin-5,7-dione] was run?
A: 10 to 50 µM

Q: For CCC1COCCC1CCn1c(=O)c2c(ncn2C)n(C)c1=O (centres unmarked) [Example 15, 1-(2-(3-Ethyltetrahydro-2H-pyran-4-yl)ethyl)-3,7-dimethyl-1H-purin-2,6-(3H,7H)-dione], which IC50 is on record?
A: 10 to 50 µM

Q: Which IC50 does the source give for CC(C)Cn1cnc2c1c(=O)n(CCC1C[C@@H](C)O[C@H](C)C1)c(=O)n2C (stereo partly drawn) [Example 26, 1-(2-((2R,6R)-2,6-dimethyltetrahydro-2H-pyran-4-yl)ethyl)-7-isobutyl-3-methyl-1H-purin-2,6(3H, 7H)-dione] here?
A: 10 to 50 µM

Q: CCC1CC(CCn2c(=O)c3c(ncn3C)n(C)c2=O)CCO1 (centres unmarked) [Example 16] was tested. Which IC50 did it give?
A: 10 to 50 µM

Q: Which IC50 does the source give for CCC1OCC1CCn1c(=O)c2c(ncn2C)n(C)c1=O (centres unmarked) [Example 5, 1-(2-(2-Ethyloxetan-3-yl)ethyl)-3,7-dimethyl-1H-purin-2,6(3H,7H)-dione] here?
A: 10 to 50 µM

Q: With CCC1(Cn2c(=O)c3c(ncn3C)n(C)c2=O)COC1 [Example 4, 1-((3-Ethyloxetan-3-yl)methyl)3,7-dimethyl-1H-purin-2,6(3H,7H)-dione] as the molecule, how does the IC50 read?
A: 10 to 50 µM

Q: How did the IC50 turn out when COC1CCC(Cn2c(=O)c3c(ncn3C)n(C)c2=O)CC1 (centres unmarked) [Example 18, 1((-4-Methoxycyclohexyl)methyl)-3,7-dimethyl-1H-purin-2,6-(3H,7H)-dione] was run?
A: 10 to 50 µM

Q: C[C@@H]1CC(CCn2c(=O)c3c(ncn3CC3CC3)n(C)c2=O)C[C@@H](C)O1 (some centres unmarked) [Example 23] was tested. Which IC50 did it give?
A: 10 to 50 µM

Q: How did the IC50 turn out when C[C@H]1CC(CCn2c(=O)c3c(ncn3C)n(C)c2=O)C[C@H](C)O1 (stereo partly drawn) [Example 14, 1-[2-((2S,6S)-2,6-dimethyltetrahydro-2H-pyran-4-yl)-ethyl]-3,7-dimethyl-1H-2,6(3H,7H)-dione] was run?
A: 10 to 50 µM

Q: With CC(C)n1cnc2c1c(=O)n(CCC1C[C@@H](C)O[C@H](C)C1)c(=O)n2C (stereo partly drawn) [Example 21, 1-(2-((2R,6R)-2,6-dimethyltetrahydro-2H-pyran-4-yl)ethyl)yl-7-isopropyl-3-methyl-1H-purin-2,6(3H,7H)-dione] as the molecule, how does the IC50 read?
A: 10 to 50 µM

Q: For CCC1(CCn2c(=O)c3c(ncn3C)n(C)c2=O)CCOC1 (single isomer, unassigned) [Example 12 Isomer 2, 1-(2-(3-Ethyltetrahydro-furan-3-yl)ethyl)-3,7-dimethyl-1H-purin-2,6-(3H,7H)-dione], which IC50 is on record?
A: 10 to 50 µM

Q: How did the IC50 turn out when CCC1(Cn2c(=O)c3c(ncn3C)n(C)c2=O)CCOCC1 [Example 12 Isomer 1, 1-((4-Ethyltetrahydro-2H-pyran-4-yl)methyl)-3,7-dimethyl-1H-purin-2,6-(3H,7H)-dione] was run?
A: 10 to 50 µM

Q: Which IC50 does the source give for Cn1cnc2c1c(=O)n(CC1(C)CCOCC1)c(=O)n2C [Example 11 Isomer 1, 3,7-Dimethyl-1-((4-methyltetrahydro-2H-pyran-4-yl)methyl)-1H-purin-2,6-(3H,7H)-dione] here?
A: 10 to 50 µM

Q: C[C@@H]1CC(CCn2c(=O)c3c(ncn3CC(F)(F)F)n(C)c2=O)C[C@@H](C)O1 (stereo partly drawn) [Example 20, 1-(2-((2R,6R)-2,6-dimethyltetrahydro-2H-pyran-4-yl)ethyl)-3-methyl-7-(2,2,2-trifluoroethyl)-1H-purin-2,6 (3H,7H)-dione] was tested. Which IC50 did it give?
A: 10 to 50 µM
